What was measured:
rats [1] = test: contextual fear conditioning in rats (freezing); assay type: in vivo, rat; conditions: I.V. in DMSO, furosemide 100 mg/kg, bumetanide 50 mg/kg; compared with vehicle alone; FIG. 5
Protocol: Contextual fear conditioning involves pairing an aversive event, in this case moderate foot shock, with a distinctive environment. The strength of the fear memory is assessed using freezing, a species-typical defensive reaction in rats, marked by complete immobility, except for breathing. […] However, if they are allowed to explore the distinctive environment sometime before the immediate shock, they show intense anxiety and fear when placed back into the same environment. We can take advantage of this fact and, by procedurally dividing contextual fear conditioning into two phases, we can separately study effects of treatments on memory for the context (specifically a hippocampus based process) from learning the association between context and shock or experiencing the aversiveness of the shock (which depend upon emotional response circuitry including amygdala). […] The experiment employed 24 rats. […] Each rat was again placed into the same environment for 8 min during which time freezing was measured, as an index of Pavlovian conditioned fear. […] Measurement of freezing was accomplished through an overhead video camera connected to the microcomputer and was automatically scored using a specialty piece of software, FreezeFrame (OER Inc., Reston, Va.). Total freezing time was analyzed in a one-way analysis of variance (ANOVA) test, with drug dose as the […] factor.

human skin = conditions: Willis et al.; cited from earlier work
rats [2] = test: fear potentiated startle (FPS) test in rats; assay type: in vivo, rat
Protocol: Twenty-four rats received a 30 min period of habituation to the FPS apparatus. Twenty-four hours later, baseline startle amplitudes were collected. The rats were then divided into three matched groups based on baseline startle amplitudes. […] Groups 1 and 2 therefore consisted of 8 rats each, with Group 3 consisting of […]. Following baseline startle amplitude collection, 20 light/shock pairings were delivered on two sessions over two consecutive days (i.e., 10 light/shock pairings per day). […] Immediately following injections, startle amplitudes were assessed during startle alone trials and startle plus fear (light followed by startle) trials. Fear potentiated startle (light+startle amplitudes minus startle alone amplitudes) was compared between the treatment groups.
Animals were trained and tested in four identical stabilimeter devices (Med-Associates). Briefly, each rat was placed in a small Plexiglas cylinder. The floor of each stabilimeter consisted of four 6-mm-diameter stainless steel bars spaced 18 mm apart through which shock can be delivered. Cylinder movements result in displacement of an accelerometer where the resultant voltage is proportional to the velocity of the cage displacement. Startle amplitude is defined as the maximum accelerometer voltage that occurs during the first 0.25 sec after the startle stimulus is delivered. […] Each stabilimeter was enclosed in a ventilated, light-, and sound-attenuating box. All sound level measurements were made with a Precision Sound Level Meter. The noise of a ventilating fan attached to a sidewall of each wooden box produced an overall background noise level of 64 dB. The startle stimulus was a 50 ms burst of white noise (5 ms rise-decay time) generated by a white noise generator. The visual conditioned stimulus employed was illumination of a light bulb adjacent to the white noise source. The unconditioned stimulus was a 0.6 mA foot shock with duration of 0.5 sec, generated by four constant-current shockers located outside the chamber. The presentation and sequencing of all stimuli were under the control of the microcomputer.
FPS procedures consisted of 5 days of testing; during days 1 and 2 baseline startle responses were collected, days 3 and 4 light/shock pairings were delivered, day 5 testing for fear potentiated startle was conducted.
Matching: On the first two days all rats were placed in the Plexiglas cylinders and 3 min later presented with 30 startle stimuli at a 30 sec interstimulus interval.
Training: On the following 2 days, rats were placed in the Plexiglas cylinders. […] The shock was delivered during the last 0.5 sec of the 3.7 sec CSs at an average intertrial interval of 4 min (range, 3-5 min).
These initial startle stimuli were used to again habituate the rats to the acoustic startle stimuli. Thirty seconds after the last of these stimuli, each animal received 60 startle stimuli with half of the stimuli presented alone (startle alone trials) and the other half presented 3.2 sec after the onset of the 3.7 sec CS (CS-startle trials). All startle stimuli are presented at a mean 30 sec interstimulus interval, randomly varying between 20 and 40 sec.
Measures: The treatment groups were compared on the difference in startle amplitude between CS-startle and startle-alone trials (fear potentiation).
The therapeutic efficacy of several bumetanide analogs in alleviating anxiety was examined using the fear potentiated startle (FPS) test in rats as described above.

rats [3] = conditions: Granados-Soto et al. Pain 2005; cited from earlier work

Structure (SMILES) | freezing (rats [1]) | sensory nerve activation, itch and flare responses induced by histamine (human skin) | difference score one week after treatment (rats [2]; compared with vehicle alone, FIG. 10) | statistical difference from vehicle in difference score one week after treatment (rats [2]; error bars large for vehicle-treated animals) | difference score (startle alone - fear potentiated startle) on the test day (rats [2]; i.v. in DMSO, furosemide 100 mg/kg, bumetanide 70 mg/kg, compared with vehicle alone, FIG. 8) | formalin-induced nociception (rats [3])
CCCCNc1cc(C(=O)O)cc(S(N)(=O)=O)c1Oc1ccccc1 [bumetanide] | significantly less freezing | inhibit sensory nerve activation to reduce the itch and flare responses | higher difference score | does not imply any statistically significant difference | statistically significantly lower difference score | reduced
CCCc1c2oc(C(=O)O)cc(=O)c2cc2c(=O)cc(C(=O)O)n(CC)c12 [nedocromil sodium] |  | inhibit sensory nerve activation to reduce the itch and flare responses |  |  |  | 
NS(=O)(=O)c1cc(C(=O)O)cc(N2CCCC2)c1Oc1ccccc1 [piretanide] |  |  |  |  |  | reduced
